Read-outs that look alike come from different tables or passages of the source.
How the values were obtained:
Format in all cases: cell-based, human
[1] = tested on: MG63b; test: Q-PCR gene expression in osteosarcoma cell-line MG63b; conditions: 10 μM
Experimental: (§1) CpdA was synthesized as described previously. […] They were sacrificed and livers were isolated. […] Gene expression of HPRT was used for normalization. […] Gene expression of HPRT was used for normalization. […] Gene expression of HPRT was used for normalization. Statistical significance was determined by one way anova. […] Gene expression of HPRT was used for normalization. […] Gene expression of HPRT was used for normalization. Statistical significance was determined by one way anova. […] Statistical significance was determined with a Kruskal-Wallis test.

[2] = tested on: FLS cells (fibroblast-like synoviocytes); test: Q-PCR/ELISA gene expression in primary FLS of RA patients
Experimental: as §1
Western blot analysis was performed on total protein extracts with an anti-GR(H-300) antibody. The detection of ERK was used as a loading control. After 8 days of treatment liver samples were taken from the PBS, DEX (20 μg) or CpdA (300 μg) treated DBA/1 mice (FIG. 22B). Q-PCR was performed for the detection of GR in the different samples. Statistical significance was determined with a Mann-Whitney Test. FLS were pre-treated with solvent, DEX (1 μM) or CpdA (10 μM) for 1 hour (set-up 1) or 24 hours (set-up 2), as indicated in the figures. Afterwards, TNF (2000 units/ml) was added for 6 h. Western blot analysis was performed on total extracts with an anti-GR(H-300) antibody (FIG. 19A). Detection of ERK was used as a loading control. The Human Inflammation Array was incubated with medium of cultured FLS and developed following the manufacturer's instruction (FIG. 19B). Total RNA was isolated from the induced FLS and subjected to reverse transcriptase PCR. […] Gene expression of HPRT was used for normalization. Statistical significance was determined by one way anova. […] Since it has been proposed that the cellular sensitivity to GC is directly proportional to the receptor concentration, the mechanism of homologous down-regulation appears to drastically affect the cellular sensitivity of primary human RA-FLS to GC therapy. […] Such an effect can not be observed with CpdA. […] Therefore, it is not surprising that some patients who develop resistance to the therapeutic effects of GC, still display the unwanted effects associated with prolonged GC treatment. […] All publications and patent applications mentioned in this specification are herein incorporated by reference to the same extent as if each independent publication or patent application was specifically and individually indicated to be incorporated by reference. Other embodiments are within the scope of the claims.

[3] = tested on: multiple myeloma cells U266; test: MTT test, cell viability of U266 cells
Experimental: (§2) The MTT test is a standard assay addressing cell toxicity of a compound. It is based on the principle that after 3-4 hours of cell incubation with MTT (3-(4,5-dimethylthiazole-2-yl)-2,5-diphenyl tetrazolium bromide) so-called purple formazan crystals develop in living and early apoptotic cells. Dead cells don't produce formazan crystals.
(§3) Different cell lines were tested. Unless indicated differently, A549 human lung epithelial cells (derived from lung carcinoma) and L929sA murine fibroblast cells were cultured in DMEM with 10% FCS, 100 U/ml penicillin and 100 μg/ml streptomycin. Unless indicated differently, the human multiple myeloma cell lines L363, U266 and MM1.S were cultured in RPMI 1640 with Glutamax-I, supplemented with 10% FCS, 100 U/ml penicillin and 100 μg/ml streptomycin. Cells were seeded at 5000 cells/well (for adherent A549 and L929sA cells) or at 10000 cells/well (for the multiple myeloma lines in suspension) in 96 well plates. Cells were incubated in the presence of the respective synephrine compounds or vehicle (EtOH; for control test) in a final volume of 0.2 ml for 24 or 48 hours at 37° C. Subsequently, 20 μl of MTT solution (5 mg/ml in phosphate-buffered saline) was added to each well. After 4 hours incubation at 37° C., 80 μl of the extraction buffer (10% SDS, 0.01 M HCl) was added. After overnight incubation at room temperature, the optical densities at 590 nm were measured. Results are illustrated in FIGS. 2 to 6 and are expressed as percentage of viable cells as compared to vehicle-treated controls.
The MTT test was further extended to include alternative synephrine derivatives and a range of multiple myeloma cell lines for which the results are illustrated by FIGS. 3A, 3B and 4A. Human multiple myeloma cell lines L363, U266 and MM1.S were cultured in RPMI 1640 with Glutamax-I, supplemented with 10% FCS, 100 U/ml penicillin and 100 μg/ml streptomycin. Cells were seeded at 10000 cells/well in 96 well plates. Cells were incubated in the presence of test compounds or vehicle in a final volume of 0.2 ml for 24 or 48 hours at 37° C. The test compounds included in the test were the synephrine derivatives CpdA, Naphth, Benz and Isobut, and DEX as a comparative example. Subsequently, 20 μl of MTT solution (5 mg/ml in phosphate-buffered saline) was added to each well. After 4 hours incubation at 37° C., 80 μl of the extraction buffer (10% SDS, 0.01 M HCl) was added. After 48 hours incubation at room temperature, the optical densities at 590 nm were measured. Results are expressed as percentage of viable cells as compared to vehicle-treated controls.

[4] = MTT test, cell viability of A549 cells; conditions: human, A549 lung epithelial (carcinoma) cells, read-out: Block of A549 cell viability
Experimental: as §2, §3
In a further MTT test, the activity of the synephrine derivatives on the inhibition of cell viability of non-immune cells was measured. […] Tests were performed for 24 hours and for 48 hours. The results are illustrated by FIGS. 5A and 5B for L929 cells, and by FIGS. 6A and 6B for A549 cells. It was observed that CpdA at 10^−5 M blocked cell viability of L929sA and A549 for not more than 10%.

[5] = tested on: Saos-2; test: Q-PCR gene expression in osteosarcoma cell-line Saos-2; conditions: 10 μM
Experimental: as §1

## CNCC(Cl)c1ccc(OC(C)=O)cc1.Cl (stereo not drawn) [CpdA, 2-(4-acetoxyphenyl)-2-chloro-N-methyl-ethylammonium chloride]
[1]; 24 hours, FIG. 14B
  Expression of OPG: does not down-regulate the expression of OPG
  Expression of cathepsin K: does not stimulate the expression of cathepsin K
[1]; TNF 2000 U/ml 6 hours, FIG. 14A
  Expression of pro-inflammatory mediators (anti-inflammatory effect): anti-inflammatory effect
[2]; 10 μM pre-treated 24 hours, TNF 2000 units/ml 6 h, FIG. 19
  Repression of TNF-induced MCP-1, IL-8 and IL-6 after prolonged treatment (set-up 2): still able to repress the TNF-induced expression of MCP-1, IL-8 and IL-6
[2]; 10 μM, 24 hours
  RANKL/OPG ratio: does not alter the RANKL/OPG ratio
[2]; 10 μM, 24 hours, FIG. 18
  Expression of cathepsin K: does not stimulate the expression of cathepsin K
[2]; 10 μM, 24 hours, FIG. 18, RANKL solvent versus CpdA p>0.05
  Expression of osteoclast differentiation markers M-CSF and RANKL: does not stimulate the expression
[2]; 10 μM, 24 hours, FIG. 18, solvent versus CpdA p>0.05
  Expression of OPG: does not down-regulate the expression of OPG
[2]; 10 μM, FIG. 20
  Transactivation function of GR (GRE-driven PCOLCE2 and GS expression): does not evoke the transactivation function of GR
[2]; 10 μM, TNF 2000 U/ml 6 hours, FIG. 17
  Expression of pro-inflammatory mediators (anti-inflammatory effect): anti-inflammatory effect
[3]; 10^−4M, serum-containing medium, FIG. 2B
  Cell killing of U266 cells: 60%
[3]; 10^−5M, growth medium with 10% fetal calf serum, 48 hours, FIG. 2B
  Cell killing of U266 cells: 10%
[3]; 10^−5M, serum-free growth medium, 24 hours, FIG. 2A
  Cell killing of U266 cells: 60%
[3]; 10^−6 to 10^−5 M, 10% FCS, FIG. 3A
  Effect on cell viability of U266 cells: 15-20%
[3]; Homo sapiens, U-266, 10^−4 M, 10% FCS, FIG. 3A, read-out: Block of U266 cell viability / cell killing
  cytotoxicity at 100 µM: 40%
[3]; Homo sapiens, U-266, 10^−4M, serum-free medium, FIG. 2A, read-out: Cell killing / reduction of viability of U266 cells
  cytotoxicity at 100 µM: 80%
[3]; Homo sapiens, U-266, 10^−6M, serum-free growth medium, 24 hours, FIG. 2A, read-out: Inhibition of viability of U266 cells
  cytotoxicity at 1 µM: 40%
[4]; 10^−4 M, 24 hours, FIG. 6A
  cytotoxicity at 24 h: 20%
[4]; 10^−4 M, 48 hours, FIG. 6B
  cytotoxicity at 48 h: 40%
[4]; 10^−5 M, 24 hours and 48 hours, FIGS. 6A and 6B
  cytotoxicity: ≤ 10%
[5]; 24 hours
  RANKL/OPG ratio: does not alter the RANKL/OPG ratio
[5]; 24 hours, FIG. 15, RANKL solvent versus CpdA p>0.05
  Expression of osteoclast differentiation markers M-CSF and RANKL: does not stimulate the expression
[5]; 24 hours, FIG. 15, solvent versus CpdA p>0.05
  Expression of OPG: does not down-regulate the expression of OPG
[5]; TNF 2000 U/ml 6 hours, FIG. 16
  Expression of pro-inflammatory mediators (anti-inflammatory effect): anti-inflammatory effect

Reference: patent US8039501B2, “Synephrine derivatives useful as anti-inflammatory agents” (Universiteit Gent, priority 2005, dated 2011)
